Data reported in the supplement of paper PMC11451515.

Test system: NOMO1
Assay: cell viability relative to DMSO control; higher = less cytotoxic
Settings: 48 h
Procedure, shortened: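 Leukemia cells (NOMO1 or SEM, 500 cells/well; P12-Ichikawa, 1000 cells/well) were seeded in 5 μl in 1536-well plates after at least four passages of adaptation to each medium. They received library compounds in DMSO by pin dosing, 11 threefold points from 47 μM to 0.79 nM. Luminescence with CellTiter-Glo One was read after 48 h at 37°C. Viability is stated per plate relative to DMSO wells, with cell-free wells as background.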

[1] = HPLM + 10% dialyzed FBS, 0.000781 µM
[2] = HPLM + 10% dialyzed FBS, 0.00234 µM
[3] = HPLM + 10% dialyzed FBS, 0.00702 µM
[4] = HPLM + 10% dialyzed FBS, 0.0211 µM
[5] = HPLM + 10% dialyzed FBS, 0.0632 µM
[6] = HPLM + 10% dialyzed FBS, 0.19 µM
[7] = HPLM + 10% dialyzed FBS, 0.569 µM
[8] = HPLM + 10% dialyzed FBS, 1.71 µM
[9] = HPLM + 10% dialyzed FBS, 5.12 µM
[10] = HPLM + 10% dialyzed FBS, 15.4 µM
[11] = HPLM + 10% dialyzed FBS, 46.1 µM
[12] = RPMI 5 mM glucose + 10% FBS, 0.000781 µM
[13] = RPMI 5 mM glucose + 10% FBS, 0.00234 µM
[14] = RPMI 5 mM glucose + 10% FBS, 0.00702 µM
[15] = RPMI 5 mM glucose + 10% FBS, 0.0211 µM
[16] = RPMI 5 mM glucose + 10% FBS, 0.0632 µM
[17] = RPMI 5 mM glucose + 10% FBS, 0.19 µM
[18] = RPMI 5 mM glucose + 10% FBS, 0.569 µM
[19] = RPMI 5 mM glucose + 10% FBS, 1.71 µM
[20] = RPMI 5 mM glucose + 10% FBS, 5.12 µM
[21] = RPMI 5 mM glucose + 10% FBS, 15.4 µM
[22] = RPMI 5 mM glucose + 10% FBS, 46.1 µM
[23] = RPMI 5 mM glucose + 10% dialyzed FBS, 0.000781 µM
[24] = RPMI 5 mM glucose + 10% dialyzed FBS, 0.00234 µM
[25] = RPMI 5 mM glucose + 10% dialyzed FBS, 0.00702 µM
[26] = RPMI 5 mM glucose + 10% dialyzed FBS, 0.0211 µM
[27] = RPMI 5 mM glucose + 10% dialyzed FBS, 0.0632 µM
[28] = RPMI 5 mM glucose + 10% dialyzed FBS, 0.19 µM
[29] = RPMI 5 mM glucose + 10% dialyzed FBS, 0.569 µM
[30] = RPMI 5 mM glucose + 10% dialyzed FBS, 1.71 µM
[31] = RPMI 5 mM glucose + 10% dialyzed FBS, 5.12 µM
[32] = RPMI 5 mM glucose + 10% dialyzed FBS, 15.4 µM
[33] = RPMI 5 mM glucose + 10% dialyzed FBS, 46.1 µM

SMILES | cell viability [1] [%] | cell viability [2] [%] | cell viability [3] [%] | cell viability [4] [%] | cell viability [5] [%] | cell viability [6] [%] | cell viability [7] [%] | cell viability [8] [%] | cell viability [9] [%] | cell viability [10] [%] | cell viability [11] [%] | cell viability [12] [%] | cell viability [13] [%] | cell viability [14] [%] | cell viability [15] [%] | cell viability [16] [%] | cell viability [17] [%] | cell viability [18] [%] | cell viability [19] [%] | cell viability [20] [%] | cell viability [21] [%] | cell viability [22] [%] | cell viability [23] [%] | cell viability [24] [%] | cell viability [25] [%] | cell viability [26] [%] | cell viability [27] [%] | cell viability [28] [%] | cell viability [29] [%] | cell viability [30] [%] | cell viability [31] [%] | cell viability [32] [%] | cell viability [33] [%]
CNC(=O)c1cc(Oc2ccc(NC(=O)Nc3ccc(Cl)c(C(F)(F)F)c3)c(F)c2)ccn1 | 81.7 | 96.4 | 112 | 107 | 105 | 104 | 109 | 105 | 73.6 | 77.1 | 70.6 | 86.5 | 103 | 94.8 | 108 | 97.1 | 94.3 | 95.6 | 86.2 | 85.4 | 83.4 | 69.7 | 88 | 94.8 | 89.8 | 92.4 | 98.5 | 109 | 104 | 97.9 | 80.3 | 82.2 | 73.6
CCN(CCO)CCCC(C)Nc1ccnc2cc(Cl)ccc12 (centres undefined) | 111 | 105 | 104 | 123 | 112 | 139 | 107 | 101 | 90 | 53.2 | 26 | 107 | 115 | 110 | 102 | 101 | 118 | 115 | 116 | 110 | 45.2 | 21 |  |  |  |  |  |  |  |  |  |  | 
COC1=CC=CC(=C1/C2=N/CC3=C(N=C(NC4=CC(=C(C=C4)C(O)=O)OC)N=C3)C5=CC=C(Cl)C=C25)F | 78.5 | 88.3 | 78.9 | 88.2 | 76.3 | 38.6 | 53.4 | 48.3 | 58.6 | 62 | 51.6 | 70.8 | 80.6 | 77.2 | 84 | 71.4 | 28.4 | 48.8 | 46.5 | 49.8 | 53.6 | 61.8 | 82.2 | 77.5 | 72.9 | 82.2 | 63.7 | 51.9 | 49.4 | 48.2 | 49 | 50.5 | 61
N[C@@H](Cc1cc(I)c(Oc2cc(I)c(O)c(I)c2)c(I)c1)C(=O)O | 119 | 109 | 105 | 103 | 111 | 109 | 125 | 94.5 | 112 | 104 | 97.4 | 92.9 | 105 | 107 | 100 | 101 | 97 | 108 | 105 | 93.6 | 112 | 84.8 | 109 | 116 | 113 | 113 | 94.1 | 95.5 | 96.9 | 98.9 | 94 | 96.8 | 92.6
CCC1=C2CN3C(=O)\C4=C(/C=C3/C2=NC5=CC=C(O)C=C15)[C@@](O)(CC)C(=O)OC4 | 102 | 96 | 97.8 | 60.5 | 27.1 | 25.9 | 28.2 | 23.4 | 22.8 | 24.8 | 27 | 93 | 95.5 | 92.5 | 91.8 | 18 | 16.6 | 20.7 | 17.4 | 19.6 | 16.6 | 16.1 | 104 | 90.1 | 91.8 | 69.8 | 23.6 | 22.5 | 26.6 | 21 | 22.7 | 22.2 | 21.2
CN1CCN(CC1)C/2=N/C3=CC=CC=C3NC4=C2C=C(C)S4 | 94.5 | 101 | 102 | 109 | 110 | 96.1 | 93.5 | 86.3 | 86.6 | 75.5 | 77.1 | 89.8 | 85.5 | 80.5 | 88.5 | 100 | 82.4 | 96.7 | 83.9 | 86.1 | 82 | 97.1 | 86.1 | 72.9 | 78.6 | 85 | 88.9 | 86.9 | 99.3 | 89.4 | 76.2 | 69.7 | 81.2
CC=CC1=C(C(=O)O)N2C(=O)[C@@H](NC(=O)[C@H](N)c3ccc(O)cc3)[C@H]2SC1.O | 80.5 | 102 | 113 | 104 | 120 | 116 | 118 | 60.7 | 33.1 | 31.3 | 23.8 | 93.7 | 109 | 113 | 116 | 112 | 125 | 118 | 28.4 | 22.2 | 18.1 | 15.1 | 106 | 104 | 96 | 104 | 117 | 113 | 109 | 89.6 | 24.8 | 23.6 | 20
CCOC(=O)c1c(/C(C#N)=C\N)c2ccc(Cl)c(Cl)c2n1C | 89.9 | 95.7 | 94.3 | 95 | 72.6 | 101 | 91.1 | 87.2 | 94 | 95.8 | 103 | 81.9 | 80.7 | 82.5 | 92 | 80.4 | 77.3 | 79.7 | 88 | 80.8 | 78.6 | 95.3 | 90.7 | 90.1 | 87.7 | 91.4 | 79.2 | 77 | 86 | 86.8 | 87.2 | 77.6 | 101
Cc1n[nH]c(C)c1Cc1sc2c(c1C(=O)N1C[C@H](O)CO1)c(=O)n(C)c(=O)n2CC(C)C |  |  |  |  |  |  |  |  |  |  |  | 107 | 105 | 102 | 100 | 102 | 102 | 109 | 99.1 | 93.9 | 106 | 109 | 105 | 109 | 117 | 102 | 116 | 104 | 115 | 122 | 113 | 119 | 99.7
O=C1C(CCC(O)c2ccc(F)cc2)C(c2ccc(O)cc2)N1c1ccc(F)cc1 (centres undefined) | 111 | 104 | 123 | 124 | 113 | 132 | 133 | 132 | 146 | 132 | 47.5 | 114 | 114 | 108 | 106 | 110 | 120 | 112 | 122 | 122 | 130 | 127 | 101 | 98.9 | 107 | 113 | 92.7 | 118 | 111 | 103 | 117 | 106 | 103
NNC(=O)c1ccncc1 | 90.3 | 99.2 | 117 | 123 | 121 | 124 | 125 | 123 | 137 | 131 | 123 | 108 | 111 | 114 | 109 | 122 | 135 | 123 | 115 | 128 | 119 | 130 | 120 | 117 | 110 | 117 | 119 | 118 | 119 | 126 | 124 | 126 | 125
Cc1ccnc(N[S+](=O)([O-])c2ccc(NC(=O)Nc3ccc([S+](=O)([O-])Nc4nccc(C)n4)cc3)cc2)n1 | 100 | 99.6 | 99.3 | 101 | 107 | 20.8 | 37.1 | 7.33 | 6.39 | 4.89 | 2.2 | 97.6 | 83.9 | 83.5 | 90.1 | 86.6 | 36 | 53.1 | 7.07 | 5.88 | 4.91 | 2.42 | 79.3 | 77.8 | 88 | 85.2 | 86.5 | 46.8 | 56 | 6.77 | 5.66 | 4.24 | 2.51
N[C@@H](Cc1ccc(N(CCCl)CCCl)cc1)C(=O)O |  |  |  |  |  |  |  |  |  |  |  | 124 | 130 | 123 | 142 | 150 | 140 | 137 | 137 | 124 | 44.8 | 23.8 |  |  |  |  |  |  |  |  |  |  | 
CCOC\1=C(/C(=O)NC2=CC=C(OC3=C(Cl)C(=NC=C3)N)C(=C2)F)C(=O)N(\C=C1)C4=CC=C(F)C=C4 | 86.9 | 96.1 | 99.3 | 96.1 | 102 | 106 | 91.6 | 75.6 | 75.1 | 70.9 | 39.1 | 99.8 | 102 | 104 | 90.4 | 100 | 96.6 | 93.5 | 88.7 | 90 | 92 | 51.9 | 111 | 96.1 | 92.2 | 94.7 | 95.3 | 96.8 | 89.1 | 95.8 | 100 | 74.7 | 52.7
CC(=O)O[C@@]12CO[C@@H]1C[C@H](O)[C@]3(C)[C@@H]2[C@H](OC(=O)C4=CC=CC=C4)[C@]5(O)C[C@H](O)/C(=C(/[C@@H](O)C3=O)C5(C)C)C | 109 | 133 | 123 | 122 | 130 | 131 | 114 | 121 | 117 | 36.1 | 29.1 | 98.1 | 112 | 111 | 116 | 118 | 108 | 105 | 113 | 109 | 51.8 | 13.3 | 89.8 | 92.8 | 106 | 121 | 113 | 114 | 106 | 111 | 115 | 45.1 | 19.3
CC(=O)OCC(CCn1cnc2cnc(N)nc21)COC(C)=O | 80 | 105 | 89.9 | 98.4 | 102 | 113 | 102 | 120 | 112 | 103 | 101 | 91.7 | 101 | 92.8 | 93.1 | 93.9 | 106 | 98.9 | 108 | 104 | 94.2 | 92.7 | 92.4 | 91.3 | 104 | 93 | 89.9 | 112 | 100 | 101 | 99.9 | 108 | 90.3
